For 18 compounds, MIC results are on record in patent US5354862A, “Preparation and the use of halopropargylated cyclic quaternary ammonium compounds as antimicrobial agents” (Rohm and Haas Company, priority 1993, dated 1994).

Assay in all cases: Broth two-fold serial dilution MIC test
Assay [1] has as its system Pseudomonas aeruginosa. It is filed as cell-based, Pseudomonas aeruginosa (ATCC 15442). The conditions noted are these: Table 2, Psae. Put shortly: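 Broth two-fold serial dilution MIC (500 to 0.25 ppm) was run against Pseudomonas aeruginosa, with compound from 1% stock in acetone/methanol/water 5:3:2. Vessels inoculated with standardized broth-grown cells were incubated, then scored for growth. MIC is the lowest concentration giving complete growth inhibition.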

The test system of assay [2] is Escherichia coli. In kind it is cell-based, Escherichia coli (ATCC 11229). The conditions noted are these: Table 2, Ecol. In a few lines:
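Broth two-fold serial dilutions ran from 500 down to 0.25 ppm, prepared from a stock in acetone/methanol/water (5:3:2). Each tube received a standardized bacterial suspension and was incubated at a temperature suited to the species. MIC is the lowest concentration giving complete growth inhibition.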

For assay [3], the system named is Staphylococcus aureus. It is filed as cell-based, Staphylococcus aureus (ATCC 6538). The following applies: Table 2, Saur. Put shortly:
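Broth two-fold serial dilution from 500 ppm down to 0.25 ppm, compound delivered from acetone/methanol/water stock, inoculated with standardized cell suspension and incubated at an organism-appropriate temperature. MIC is the lowest concentration giving complete growth inhibition.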

Assay [4] relates to Aspergillus niger. In kind it is cell-based, Aspergillus niger (ATCC 6275). The conditions noted are these: Table 2, Anig, TSB media. In a few lines: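 Two-fold broth serial dilution from 500 ppm down to 0.25 ppm, compound stock in acetone/methanol/water 5:3:2. Vessels inoculated with standardized spore suspension harvested from agar slants, incubated at a species-appropriate temperature, then scored for growth/no growth. MIC is the lowest concentration giving complete growth inhibition.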

Setting [5] is: Pseudomonas aeruginosa, M9G media, read-out: MIC.
The mark [6] stands for this setting: Pseudomonas aeruginosa, TSB media, read-out: MIC.
Where [7] appears, read: Escherichia coli, M9G media, read-out: MIC.
Where [8] appears, read: Escherichia coli, TSB media, read-out: MIC.
Where [9] appears, read: Staphylococcus aureus, M9G media, read-out: MIC.
[10] abbreviates: Staphylococcus aureus, TSB media, read-out: MIC.
Setting [11] is: Aspergillus niger, read-out: MIC.

Where two headings read alike, the source gives them in different places. A value given as a limit tells only on which side of the number the result lay.

As to `CCCCCCCCCCCCCC[N+]1(CC#CI)CCC(C)CC1` (stereo not drawn) [Compound 52, 1-(tetradecyl)-1-(3-iodopropargyl)-4-methylpiperidinium benzenesulfonate], the MIC is 16 mg/L in assay [1] (setting [5]); 16 mg/L in assay [1] (setting [6]); 8 mg/L in assay [2] (setting [7]); 2 mg/L in assay [2] (setting [8]); < 0.25 mg/L in assay [3] (setting [9]); < 0.25 mg/L in assay [3] (setting [10]). Besides, the MIC in assay [4] (setting [11]) was < 0.25 mg/L.

As for `CCCCCCCCCCCCCC[N+]1(CC#CI)CC=CCC1` (stereo not drawn) [Compound 53, 1-(tetradecyl)-1-(3-iodopropargyl)-1,2,3,6-tetrahydropyridinium benzenesulfonate], the MIC in assay [1] (setting [5]) was 8 mg/L; in assay [1] (setting [6]) it was 16 mg/L; in assay [2] (setting [7]), 2 mg/L; in assay [2] (setting [8]) it was 1 mg/L; in assay [3] (setting [9]), < 0.25 mg/L; in assay [3] (setting [10]), < 0.25 mg/L. The MIC in assay [4] (setting [11]) was < 0.25 mg/L.

Take `CCCCCCCCCCCCCC[N+]1(CC#CI)CCCCC1C` (stereo not drawn) [Compound 54, 1-(tetradecyl)-1-(3-iodopropargyl)-2-methylpiperidinium 4methylbenzenesulfonate]: the MIC in assay [1] (M9G media) was 250 ppm; in assay [1] (TSB media), 125 ppm; in assay [2] (M9G media), 8 ppm; in assay [2] (TSB media), 16 ppm; in assay [3] (M9G media), 1 ppm; in assay [3] (TSB media), 8 ppm. The MIC in assay [4] was found to be 1 ppm.

Regarding `CCCCCCCCCCCCCC[N+]1(CC#CI)CCCCC1C` (stereo not drawn) [Compound 55, 1-(tetradecyl)-1-(3-iodopropargyl)-2-methylpiperidinium methanesulfonate], the MIC in assay [1] (M9G media) was 125 ppm; in assay [1] (TSB media), 125 ppm; in assay [2] (M9G media), 4 ppm; in assay [2] (TSB media), 16 ppm; in assay [3] (M9G media) it was 1 ppm; in assay [3] (TSB media) it was 8 ppm. In addition, the MIC in assay [4] is listed as 1 ppm.

`CCCCCCCCCCCCCC[N+]1(CC#CI)C=NCC1.O=S(=O)([O-])c1ccccc1` (stereo not drawn) [Compound 56, 1-(tetradecyl)-1-(3-iodopropargyl)-imidazolinium benzenesulfonate]: the MIC is 8 ppm in assay [1] (M9G media); 63 ppm in assay [1] (TSB media); < 0.25 ppm in assay [2] (M9G media); < 0.25 ppm in assay [2] (TSB media); < 0.25 ppm in assay [3] (M9G media); < 0.25 ppm in assay [3] (TSB media). Also, the MIC in assay [4] was < 0.25 ppm.

Take `CCCCCCCCCCCCCC[N+]1(CC#CI)CCSCC1` [Compound 57, 4-(tetradecyl)-4-(3-iodopropargyl)-thiomorpholinium benzenesulfonate]: the MIC in assay [1] (setting [5]) was 0.5 mg/L; in assay [1] (setting [6]), 4 mg/L; in assay [2] (setting [7]), < 0.25 mg/L; in assay [2] (setting [8]), 0.5 mg/L; in assay [3] (setting [9]), < 0.25 mg/L; in assay [3] (setting [10]), < 0.25 mg/L. Moreover, the MIC in assay [4] (setting [11]) was 0.5 mg/L.

Regarding `CCCCCCCCCCCCCC[N+]1(CC#CI)CCNC1.O=S(=O)([O-])c1ccccc1` (stereo not drawn) [Compound 58, 3-(tetradecyt)-3-(3-iodopropargyl)-imidazolidinium benzenesulfonate], the MIC in assay [1] (M9G media) is on record as 125 ppm; in assay [1] (TSB media), > 500 ppm; in assay [2] (M9G media), 4 ppm; in assay [2] (TSB media), 8 ppm; in assay [3] (M9G media), 0.5 ppm; in assay [3] (TSB media), 4 ppm. Moreover, in assay [4], the MIC was found to be 8 ppm.

With `CCCCCCCCCCCCCC[N+]1(CC#CI)CCCCC1` [Compound 59, 1-tetradecyl-1-(3-iodopropargyl)-piperidinium benzenesulfonate], the MIC came to 32 ppm in assay [1] (M9G media); 125 ppm in assay [1] (TSB media); 8 ppm in assay [2] (M9G media); 16 ppm in assay [2] (TSB media); 4 ppm in assay [3] (M9G media); 4 ppm in assay [3] (TSB media). Moreover, the MIC in assay [4] amounted to 8 ppm.

As to `CCCCCCCCCCCCCCCC[N+]1(CC#CI)CCCCC1` [Compound 60, 1-hexadecyl-1-(3-iodopropargyl)-piperidinium benzenesulfonate], the MIC amounted to 63 ppm in assay [1] (M9G media); 250 ppm in assay [1] (TSB media); 2 ppm in assay [2] (M9G media); 16 ppm in assay [2] (TSB media); 1 ppm in assay [3] (M9G media); 2 ppm in assay [3] (TSB media). This compound yielded an MIC in assay [4] of 16 ppm.

In the case of `CCCCCCCCCCCCCCCC[N+]1(CC#CI)CCCCC1` [Compound 61, 1-hexadecyl-1-(3-iodopropargyl)-piperidinium methanesulfonate], the MIC in assay [1] (M9G media) is listed as 16 ppm; in assay [1] (TSB media) it was 125 ppm; in assay [2] (M9G media), 8 ppm; in assay [2] (TSB media) it was 8 ppm; in assay [3] (M9G media), 2 ppm; in assay [3] (TSB media), 2 ppm. The compound also returned an MIC in assay [4] of 8 ppm.

With `CCCCCCCCCCCCCC[N+]1(CC#CI)CCCCC1` [Compound 62, 1-tetradecyl-1-(3-iodopropargyl)-piperidinium methanesulfonate], the MIC in assay [1] (M9G media) is 16 ppm; in assay [1] (TSB media) it was 63 ppm; in assay [2] (M9G media), 2 ppm; in assay [2] (TSB media), 4 ppm; in assay [3] (M9G media), 0.25 ppm; in assay [3] (TSB media), 0.25 ppm. The same compound registered an MIC in assay [4] of 0.25 ppm.

Turning to `CCCCCCCCCCCCOC(=O)C[N+]1(CC#CI)CCCC1` [Compound 63, 1-(dodecyloxycarbonyl)methyl-1-(3-iodopropargyl)-pyrrolidinium 4-methylbenzenesulfonate], the MIC in assay [1] (setting [5]) was found to be 64 mg/L; in assay [1] (TSB media), 125 ppm; in assay [2] (setting [7]), 2 mg/L; in assay [2] (setting [8]), 4 mg/L; in assay [3] (M9G media), 2 ppm; in assay [3] (TSB media), 4 ppm. The compound also showed an MIC in assay [4] of 2 ppm.

Regarding `CCCCCCCCCCCCOC(=O)C[N+]1(CC#CI)CCCC1` [Compound 64, 1-(dodecyloxycarbonyl)methyl-1-(3-iodopropargyl)-pyrrolidinium benzenesulfonate], the MIC in assay [1] (M9G media) came to 32 ppm; in assay [1] (TSB media) it was 32 ppm; in assay [2] (M9G media), 1 ppm; in assay [2] (TSB media), 4 ppm; in assay [3] (M9G media), 0.25 ppm; in assay [3] (TSB media) it was 0.25 ppm. This compound registered an MIC in assay [4] of 8 ppm.

For the compound `CCCCCCCCCCOC(=O)C[N+]1(CC#CI)CCCC1` [Compound 65, 1-(decyioxycarbonyl)methyl-1-(3-iodopropargyl)-pyrrolidinium 4methylbenzenesulfonate], the MIC in assay [1] (setting [5]) worked out at 64 mg/L; in assay [1] (setting [6]), 125 mg/L; in assay [2] (setting [7]), 2 mg/L; in assay [2] (setting [8]) it was 4 mg/L; in assay [3] (setting [9]), 2 mg/L; in assay [3] (setting [10]), 1 mg/L. For the same compound, in assay [4] (setting [11]), the MIC was determined as 16 mg/L.

Take `CCCCCCCCCCOC(=O)C[N+]1(CC#CI)CCOCC1` [Compound 66, 4-(decyioxycarbonyl)methyl-4-(3-iodopropargyl)-morpholiniurn 4methylbenzenesulfonate]: the MIC was determined as 64 mg/L in assay [1] (setting [5]); 250 mg/L in assay [1] (setting [6]); 2 mg/L in assay [2] (setting [7]); 8 mg/L in assay [2] (setting [8]); 0.5 mg/L in assay [3] (setting [9]); 8 mg/L in assay [3] (setting [10]). For the same compound, in assay [4] (setting [11]), the MIC is 125 mg/L.

For the compound `CCCCCCCCCCOC(=O)C[N+]1(CC#CI)CCOCC1` [Compound 67, 4-(decyloxycarbonyl)methyl-4-(3-iodopropargyl)-morpholinium benzenesulfonate], the MIC in assay [1] (M9G media) is on record as 125 ppm; in assay [1] (TSB media), 250 ppm; in assay [2] (M9G media), 2 ppm; in assay [2] (TSB media), 8 ppm; in assay [3] (M9G media), 0.5 ppm; in assay [3] (TSB media), 8 ppm. The same compound came in with an MIC in assay [4] of 125 ppm.

`CCCCCCCCCCCCOC(=O)C[N+]1(CC#CI)CCOCC1` [Compound 68, 4-(dodecyloxycarbonyl)methyl-4-(3-iodopropargyl)-morpholinium 4-methylbenzenesulfonate]: the MIC was 32 mg/L in assay [1] (setting [5]); 64 mg/L in assay [1] (setting [6]); 2 mg/L in assay [2] (setting [7]); 8 mg/L in assay [2] (setting [8]); 0.5 mg/L in assay [3] (setting [9]); 2 mg/L in assay [3] (setting [10]). The MIC in assay [4] (setting [11]) is 16 mg/L.

For `CCCCCCCCCCCCCC[N+]1(CC#CI)CCCC1` [Compound 69, 1-tetradecyl-1-(3-iodopropargyl)-pyrrolidinium bromide], the MIC turned out to be 8 ppm in assay [1] (M9G media); 32 ppm in assay [1] (TSB media); 1 ppm in assay [2] (M9G media); 4 ppm in assay [2] (TSB media); 0.25 ppm in assay [3] (M9G media); 0.25 ppm in assay [3] (TSB media). The compound further had an MIC in assay [4] of 4 ppm.
